From patent US7491794B2, “Macrocyclic compounds as inhibitors of viral replication” (Intermune, Inc., priority 2003, dated 2009)
pEC50, pIC50: −log10 of the molar value.

How the values were obtained:
NS3-NS4A protease = molecular target: T1, NS3-NS4A protease (Hepatitis C virus genotype 1a, UniProt P27958); experiment: NS3-NS4A protease assay (NS3 inhibition assay, RETS1 substrate), Section B; format: biochemical; conditions: read-out: NS3-NS4A IC50
T1 construct: Recombinant E. coli or Baculovirus full-length NS3 was diluted to 3.33 μM with assay buffer; made in house; host or cells: E. coli or baculovirus (BV) system
Outline: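 Full-length NS3 (E. coli or baculovirus) precomplexed with excess NS4A-2 peptide, run at 2 nM (E. coli) or 3 nM (BV) NS3; compounds pre-incubated 10 min at room temperature before RETS1 substrate. Fluorescence (ex 335/em 495 nm) read kinetically 30 min; IC50 from four-parameter fit, converted to Ki via Ki=IC50/(1+[S]/Km).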

[1] = system: HCV sub-genomic replicon, GS4.3; experiment: Quantitation by ELISA of NPTII in the HCV sub-genomic replicon, GS4.3, Section B; format: cell-based; conditions: Hepatitis C virus; GS4.3 cells, 72 h incubation; read-out: Replicon EC50
Outline: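 GS4.3 cells (HuH-7 carrying HCV 1377/NS3-3′ replicon) were treated 72 h at 37 °C with inhibitors in 3-fold dilutions, 1% DMSO, no G418. Lysate NPTII was measured by ELISA (TMB, 450 nm). Signal as % of DMSO control; EC50 from 4-parameter fit.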

T1 sequence (P27958 1027-1657): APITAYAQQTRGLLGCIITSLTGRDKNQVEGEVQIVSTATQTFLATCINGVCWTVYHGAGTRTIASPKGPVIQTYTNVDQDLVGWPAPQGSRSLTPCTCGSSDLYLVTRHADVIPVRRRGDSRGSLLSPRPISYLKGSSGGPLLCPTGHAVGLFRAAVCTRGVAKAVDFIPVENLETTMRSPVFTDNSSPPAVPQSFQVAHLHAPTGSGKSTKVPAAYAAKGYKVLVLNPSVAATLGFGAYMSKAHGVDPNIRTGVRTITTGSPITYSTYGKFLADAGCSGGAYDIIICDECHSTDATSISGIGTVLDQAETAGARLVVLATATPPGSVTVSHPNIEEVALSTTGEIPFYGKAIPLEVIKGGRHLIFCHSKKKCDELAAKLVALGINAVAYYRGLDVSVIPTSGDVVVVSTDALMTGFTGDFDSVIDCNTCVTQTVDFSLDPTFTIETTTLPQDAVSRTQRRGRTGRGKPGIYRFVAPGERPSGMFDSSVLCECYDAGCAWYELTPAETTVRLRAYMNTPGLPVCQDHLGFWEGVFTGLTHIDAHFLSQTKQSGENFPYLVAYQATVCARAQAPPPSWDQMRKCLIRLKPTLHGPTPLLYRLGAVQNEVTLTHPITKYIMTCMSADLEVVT

Compound	pIC50 (NS3-NS4A protease)	pEC50 [1]
CC(C)(C)NC(=O)N[C@H]1CCCCC/C=C\[C@@H]2C[C@@]2(C(=O)O)NC(=O)[C@@H]2C[C@@H](OC(=O)N3Cc4ccc(Cl)cc4C3)CN2C1=O [AR00320449, (1S,4R,6S,14S,18R)-14-(3-tert-Butyl-ureido)-18-(5-chloro-1,3-dihydro-isoindole-2-carbonyloxy)-2,15-dioxo-3,16-diaza-tricyclo[14.3.0.0^4,6]nonadec-7-ene-4-carboxylic acid]	> 7.00	> 5.00
CC(C)(C)OC(=O)N[C@H]1CCCCC/C=C\[C@@H]2C[C@@]2(C(=O)O)NC(=O)[C@@H]2C[C@@H](OC(=O)N3CCc4ccc(N)cc4C3)CN2C1=O [AR00301749, (1S,4R,6S,14S,18R)-18-(7-Amino-3,4-dihydro-1H-isoquinoline-2-carbonyloxy)-14-tert-butoxycarbonylamino-2,15-dioxo-3,16-diaza— tricyclo[14.3.0.0^4,6]nonadec-7-ene-4-carboxylic acid]	> 6.00	> 5.00
O=C(N[C@H]1CCCCC/C=C\[C@@H]2C[C@@]2(C(=O)NS(=O)(=O)C2CC2)NC(=O)[C@@H]2C[C@@H](OC(=O)N3Cc4ccc(Cl)cc4C3)CN2C1=O)OCCF [AR00334222, (1S,4R,6S,14S,18R)-5-Chloro-1,3-dihydro-isoindole-2-carboxylic acid 4-cyclopropanesulfonylaminocarbonyl-14-(2-fluoro-ethoxycarbonylamino)-2,15-dioxo-3,16-diaza-tricyclo[14.3.0.0^4,6]nonadec-7-en-18-yl ester]	> 7.00	> 7.00
O=C(N[C@H]1CCCCC/C=C\[C@@H]2C[C@@]2(C(=O)NS(=O)(=O)C2CC2)NC(=O)[C@@H]2C[C@@H](OC(=O)N3CCc4ccccc4C3)CN2C1=O)OCC(F)F [AR00320579, (1S,4R,6S,14S,18R)-3,4-Dihydro-1H-isoquinoline-2-carboxylic acid 4-cyclopropanesulfonylaminocarbonyl-14-(2,2-difluoro-ethoxycarbonylamino)-2,15-dioxo-3,16-diaza-tricyclo[14.3.0.0^4,6]nonadec-7-en-18-yl ester]	> 7.00	> 7.00
CC(C)(C)OC(=O)N[C@H]1CCCCC/C=C\[C@@H]2C[C@@]2(C(=O)O)NC(=O)[C@@H]2C[C@@H](OC(=O)N3CCc4c(N)cccc4C3)CN2C1=O [AR00301745, (1S,4R,6S,14S,18R)-18-(5-Amino-3,4-dihydro-1H-isoquinoline-2-carbonyloxy)-14-tert-butoxycarbonylamino-2,15-dioxo-3,16-diaza-tricyclo[14.3.0.0^4,6]nonadec-7-ene-4-carboxylic acid]	> 6.00	> 5.00
CC(C)(C)OC(=O)N[C@H]1CCCCC/C=C\[C@@H]2C[C@@]2(C(=O)NS(=O)(=O)C2CC2)NC(=O)[C@@H]2C[C@@H](OC(=O)N3Cc4ccc(Cl)cc4C3)CN2C1=O [AR00320119, (1S,4R,6S,14S,18R)-5-Chloro-1,3-dihydro-isoindole-2-carboxylic acid 14-tert-butoxycarbonylamino-4-cyclopropanesulfonylaminocarbonyl-2,15-dioxo-3,16-diaza-tricyclo[14.3.0.0^4,6]nonadec-7-en-18-yl ester]	> 7.00	> 7.00
CC(C)(C)CC(=O)N[C@H]1CCCCC/C=C\[C@@H]2C[C@@]2(C(=O)NS(=O)(=O)C2CC2)NC(=O)[C@@H]2C[C@@H](OC(=O)N3Cc4ccc(Cl)cc4C3)CN2C1=O [AR00334225, (1S,4R,6S,14S,18R)-5-Chloro-1,3-dihydro-isoindole-2-carboxylic acid 4-cyclopropanesulfonylaminocarbonyl-14-(3,3-dimethyl-butyrylamino)-2,15-dioxo-3,16-diaza-tricyclo[14.3.0.0^4,6]nonadec-7-en-18-yl ester]	> 7.00	> 6.00
O=C(N[C@H]1CCCCC/C=C\[C@@H]2C[C@@]2(C(=O)NS(=O)(=O)C2CC2)NC(=O)[C@@H]2C[C@@H](OC(=O)N3CCc4ccccc4C3)CN2C1=O)OC1CCCC1 [AR00282131, (1S,4R,6S,14S,18R)-3,4-Dihydro-1H-isoquinoline-2-carboxylic acid 14-cyclopentyloxycarbonylamino-4-cyclopropanesulfonylaminocarbonyl-2,15-dioxo-3,16-diaza-tricyclo[14.3.0.0^4,6]nonadec-7-en-18-yl ester]	> 7.00	> 7.00
O=C(N[C@H]1CCCCC/C=C\[C@@H]2C[C@@]2(C(=O)NS(=O)(=O)C2CC2)NC(=O)[C@@H]2C[C@@H](OC(=O)N3CCc4ccccc4[C@H]3CN3CCCCC3)CN2C1=O)OC1CCCC1 [AR00320557, (1S,4R,6S,14S,18R)-1-Piperidin-1S-ylmethyl-3,4-dihydro-1H-isoquinoline-2-carboxylic acid 14-cyclopentyloxycarbonylamino-4-cyclopropanesulfonylaminocarbonyl-2,15-dioxo-3,16-diaza-tricyclo[14.3.0.0^4,6]nonadec-7-en-18-yl ester]	> 7.00	> 7.00
CC(C)(C)OC(=O)N[C@H]1CCCCC/C=C\[C@@H]2C[C@@]2(C(=O)NS(=O)(=O)C2CC2)NC(=O)[C@@H]2C[C@@H](OC(=O)N3Cc4ccccc4C4(CCC4)C3)CN2C1=O [AR00312024, (1S,4R,6S,14S,18R)-4,4-Spirocyclobutyl-3,4-dihydro-1H-isoquinoline-2-carboxylic acid 14-tert-butoxycarbonylamino-4-cyclopropanesulfonylaminocarbonyl-2,15-dioxo-3,16-diaza-tricyclo[14.3.0.0^4,6]nonadec-7-en-18-yl ester]	> 7.00	> 7.00
CCNC(=O)c1ccc2c(c1)CN(C(=O)O[C@@H]1C[C@H]3C(=O)N[C@]4(C(=O)NS(=O)(=O)C5CC5)C[C@H]4/C=C\CCCCC[C@H](NC(=O)OC(C)(C)C)C(=O)N3C1)C2 [AR00365252, (1S,4R,6S,14S,18R)-5-Ethylcarbamoyl-1,3-dihydro-isoindole-2-carboxylic acid 14-tert-butoxycarbonylamino-4-cyclopropanesulfonylaminocarbonyl-2,15-dioxo-3,16-diaza-tricyclo[14.3.0.0^4,6]nonadec-7-en-18-yl ester]	> 7.00	> 6.00
COc1ccc(CC(=O)N[C@H]2CCCCC/C=C\[C@@H]3C[C@@]3(C(=O)NS(=O)(=O)C3CC3)NC(=O)[C@@H]3C[C@@H](OC(=O)N4Cc5cccc(F)c5C4)CN3C2=O)cc1 [AR00340156, (1S,4R,6S,14S,18R)-4-Fluoro-1,3-dihydro-isoindole-2-carboxylic acid 4-cyclopropanesulfonylaminocarbonyl-14-[2-(4-methoxy-phenyl)-acetylamino]-2,15-dioxo-3,16-diaza-tricyclo[14.3.0.0^4,6]nonadec-7-en-18-yl ester]	> 7.00	> 6.00
O=C(NC1CCCC1)N[C@H]1CCCCC/C=C\[C@@H]2C[C@@]2(C(=O)NS(=O)(=O)C2CC2)NC(=O)[C@@H]2C[C@@H](OC(=O)N3Cc4ccc(Cl)cc4C3)CN2C1=O [AR00320574, (1S,4R,6S,14S,18R)-5-Chloro-1,3-dihydro-isoindole-2-carboxylic acid 14-(3-cyclopentyl-ureido)-4-cyclopropanesulfonylaminocarbonyl-2,15-dioxo-3,16-diaza-tricyclo[14.3.0.0^4,6]nonadec-7-en-18-yl ester]	> 7.00	> 7.00
C[C@@H]1CN(C(=O)O[C@@H]2C[C@H]3C(=O)N[C@]4(C(=O)NS(=O)(=O)C5CC5)C[C@H]4/C=C\CCCCC[C@H](NC(=O)OC(C)(C)C)C(=O)N3C2)Cc2ccccc21 [AR00333463, (1S,4R,6S,14S,18R)-4S-Methyl-3,4-dihydro-1H-isoquinoline-2-carboxylic acid 14-tert-butoxycarbonylamino-4-cyclopropanesulfonylaminocarbonyl-2,15-dioxo-3,16-diaza-tricyclo[14.3.0.0^4,6]nonadec-7-en-18-yl ester]	> 7.00	> 7.00
COc1ccc2c(c1)CN(C(=O)O[C@@H]1C[C@H]3C(=O)N[C@]4(C(=O)NS(=O)(=O)C5CC5)C[C@H]4/C=C\CCCCC[C@H](NC(=O)OC(C)(C)C)C(=O)N3C1)C2 [AR00334314, (1S,4R,6S,14S,18R)-5-Methoxy-1,3-dihydro-isoindole-2-carboxylic acid 14-tert-butoxycarbonylamino-4-cyclopropanesulfonylaminocarbonyl-2,15-dioxo-3,16-diaza-tricyclo[14.3.0.0^4,6]nonadec-7-en-18-yl ester]	> 7.00	> 7.00
CC(C)(C)OC(=O)N[C@H]1CCCCC/C=C\[C@@H]2C[C@@]2(C(=O)NS(=O)(=O)C2CC2)NC(=O)[C@@H]2C[C@@H](NC(=O)N3Cc4ccccc4C3)CN2C1=O [AR00304008, (1S,4R,6S,14S,18R)-{4-Cyclopropanesulfonylaminocarbonyl-18-[(1,3-dihydro-isoindole-2-carbonyl)-amino]-2,15-dioxo-3,16-diaza-tricyclo[14.3.0.0^4,6]nonadec-7-en-14-yl}-carbamic acid tert-butyl ester]	> 7.00	> 7.00
O=C(N[C@H]1CCCCC/C=C\[C@@H]2C[C@@]2(C(=O)NS(=O)(=O)C2CC2)NC(=O)[C@@H]2C[C@@H](OC(=O)N3CCc4ccccc4C3)CN2C1=O)OCCF [AR00304161, (1S,4R,6S,14S,18R)-3,4-Dihydro-1H-isoquinoline-2-carboxylic acid 4-cyclopropanesulfonylaminocarbonyl-14-(2-fluoro-ethoxycarbonylamino)-2,15-dioxo-3,16-diaza-tricyclo[14.3.0.0^4,6]nonadec-7-en-18-yl ester]	> 7.00	> 7.00
